This note sets out measurements from publication PMC4170777, “Effect of Temperature on Xylanase II from Trichoderma reesei QM 9414: A Calorimetric, Catalytic, and Conformational Study” (Enzyme Research, 2014).

This assay has as its target T1, xylanase II (XYN II) (Trichoderma reesei, UniProt P36217).
T1 construct: gene xyn2; native secreted enzyme purified from wheat-straw culture supernatant of T. reesei QM 9414
Briefly: differential scanning calorimetry. Format: binding. To be noted: 0.4 M GL, 1 mg/mL protein, 0.1 M sodium citrate pH 5, scan rate 15°C/h; absolute Tm, not a shift; control without GL 57.27°C (irreversible). The text has this:
differential scanning calorimetry on xylanase II (XYN II)
A general note: In DSC, transitions show as peaks or steps in heat flow.

T1 sequence (P36217 34-223): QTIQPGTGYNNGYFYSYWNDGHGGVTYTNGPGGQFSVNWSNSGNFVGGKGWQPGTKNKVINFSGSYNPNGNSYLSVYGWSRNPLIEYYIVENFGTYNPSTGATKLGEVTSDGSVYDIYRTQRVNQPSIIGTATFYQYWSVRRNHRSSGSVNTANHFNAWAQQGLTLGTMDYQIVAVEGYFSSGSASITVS

As to `O=C1O[C@H](CO)[C@@H](O)[C@H](O)[C@H]1O` (mixture of isomers) [GL, D-glucono-1,5-lactone], the Global is 54.1 °C.
